8 compounds from PubChem BioAssay (NCI) can be followed below.

Holding throughout (assay): inhibition of tumour cell growth, NCI panel, 48 h
Test [1] concerns 786-0 renal.
The subject of test [2] is SK-MEL-2 melanoma.
Test [3] relates to M14 melanoma.
Test [4] has as its system MCF7 breast.
The test system of test [5] is HCT-15 colon.
Test [6] relates to MDA-MB-435.
For test [7], the system named is T-47D breast.
Test [8] deals with MOLT-4 leukemia.
Test [9] concerns PC-3 prostate.
Test [10] deals with HOP-92 NSCLC.

The structures appear in SMILES notation.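 Exposure lasted 48 hours, with cells grown in 96-well plates and compounds tested at five concentrations. The concentration for 50% growth inhibition is given as GI50. TGI: total growth inhibition.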

With `C[C@@H]1C=C(CCCCCCCCCCC[C@H](O)[C@@H]2CCC(=O)O2)C(=O)O1`, the GI50 in test [1] was 23.6 µM; in test [2] it was 40.8 µM; in [3], 25.1 µM; in test [4], 39.2 µM; in test [5], 25.5 µM; in [6], 24.3 µM. For the same compound, the GI50 in test [7] is 32.7 µM; in [8], 21.6 µM; in test [9], 30.5 µM. Besides, the TGI is more than 100 µM in test [1]; more than 100 µM in test [2]; 87.9 µM in test [3]; more than 100 µM in test [4]; more than 100 µM in test [5]; 60.2 µM in [6]. For the same compound, the values for the TGI in test [7], in test [8] and in test [9] were 65.2 µM, 42.6 µM and 92.9 µM, respectively.
`C1CC[N-]CC1.C1CC[N-]CC1.C1CC[N-]CC1.C1CC[N-]CC1.[Cl][Rh][Cl]`: the GI50 in [1] was 41.4 µM; in [2], 12.7 µM; in [3] it was 6.26 µM; in test [4], 10.2 µM; in test [10], 4.39 µM; in test [5] it was 41.2 µM. Moreover, the GI50 in test [6] is 4.09 µM; in test [7], 3.87 µM; in [8], 13.7 µM. In addition, the TGI was more than 100 µM in test [1]; 41.8 µM in test [2]; more than 100 µM in test [3]; more than 100 µM in test [4]; 22.1 µM in [10]; more than 100 µM in test [5]. Further, the TGI in test [6] is 32.4 µM; in [7] it was more than 100 µM; in test [8], more than 100 µM.
For `CSc1nc2c(c(=O)[nH]1)N=C1c3ccccc3C(=O)C1C(c1ccc(F)cc1)N2` (stereo unspecified), the GI50 in test [1] was 12.4 µM; in [2], 49.3 µM; in [3], 6.29 µM; in test [4], 5.18 µM; in test [10], 9.52 µM; in test [5], 4.57 µM. The GI50 in [6] was 1.65 µM; in [7], 14.2 µM; in [8], 19.5 µM; in test [9], 7.72 µM. Besides, the TGI was 27.3 µM in test [1]; more than 100 µM in [2]; more than 100 µM in test [3]; 62.4 µM in [4]; 48.8 µM in test [10]; more than 100 µM in test [5]. In addition, the TGI in [6] was 8.76 µM; in test [7] it was 94.6 µM; in test [8] it was more than 100 µM; in [9], 95.2 µM.
As for `CCOP(=O)(OCC)C(NC(c1ccccc1)c1ccccc1)c1ccccc1` (stereo unspecified), the GI50 in test [1] was 14.6 µM; in test [2], 22.3 µM; in [3] it was 15.3 µM; in test [4], 15.9 µM; in test [10], 15.6 µM; in test [5] it was 13.7 µM. For the same compound, the GI50 in test [6] was 1.36 µM; in test [7], 42.6 µM; in test [8], 0.0995 µM; in test [9], 12 µM. Also, the TGI in test [1] was determined as 29.2 µM; in test [2], 52.2 µM; in test [3] it was 28.6 µM; in test [4] it was 31.9 µM; in [10] it was 31.9 µM; in test [5], 27.6 µM. The TGI in [6] was 8.89 µM; in test [7], 99 µM; in [8] it was 3.47 µM; in test [9], 27.1 µM.
In the case of `CC(=O)O[C@H]1C(=O)[C@@]2(C)C(C(OC(=O)c3ccccc3)[C@]3(O)CC(OC(=O)[C@H](OC(=O)CCC(=O)O)C(NC(=O)c4ccccc4)c4ccccc4)C(C)=C1C3(C)C)C1(OC(C)=O)COC1C[C@@H]2OC(=O)CCC(=O)O` (stereo partly specified), the TGI in test [1] was more than 100 µM; in test [3], more than 100 µM; in test [4], more than 100 µM; in test [10], more than 100 µM; in [5] it was more than 100 µM; in test [6] it was 0.495 µM. The TGI was more than 100 µM in test [7], more than 20.6 µM in test [8] and more than 100 µM in [9]. Besides, the GI50 in test [6] was 0.189 µM.
Take `NC(=O)c1cnc(N[C@@H]2CCCC[C@@H]2N)nc1Nc1cccc(-n2nccn2)c1`: the GI50 is 5.57 µM in test [1]; 3.29 µM in test [2]; 2.11 µM in [3]; 2.33 µM in [4]; 2.7 µM in [10]; 3.81 µM in [5]. The GI50 in test [6] is 3.03 µM; in [7], 6.44 µM; in [8] it was 2.94 µM; in [9] it was 5.16 µM. The TGI was 17.6 µM in test [1]; 15.2 µM in [2]; 6.14 µM in test [3]; 10.2 µM in test [4]; 8.72 µM in test [10]; 14.9 µM in test [5]. Also, the TGI stood at 10.9 µM in [6], 22.1 µM in test [7], 12.7 µM in test [8] and 20.7 µM in [9].
For the compound `CC(C)(C)N1CCC1C(N)=O` (stereo unspecified), the GI50 in test [1], in [2], in test [3], in [4], in [10] and in test [5] was more than 100 µM in each case. Moreover, the GI50 in test [6], in test [7], in test [8] and in test [9] was more than 100 µM each time. For the same compound, the TGI in test [1], in [2], in test [3], in [4], in test [10] and in [5] was more than 100 µM in each case. The TGI in test [6], in test [7], in [8] and in test [9] was more than 100 µM each time.
For the compound `N[C@@H](Cc1c[nH]c2ccccc12)C(=O)NC1CCN(C(=O)c2c[nH]c3ccccc23)CC1`, the GI50 in [1] is 78.1 µM; in test [2] it was more than 100 µM; in test [3] it was more than 100 µM; in test [4] it was more than 100 µM; in test [10], 71 µM; in [5], more than 100 µM. Also, the GI50 in test [6] is more than 100 µM; in test [7] it was 74.5 µM; in test [8], 63.5 µM; in [9], more than 100 µM. Further, the TGI in [1], in test [2], in test [3], in [4], in test [10] and in [5] was more than 100 µM throughout. Further, the TGI in test [6], in test [7], in [8] and in test [9] was more than 100 µM throughout.
